Data from PMC12352620, “Fragment-based discovery of dual ligand pharmacophores for lipid-sensing transcription factors for designed polypharmacology” (RSC Medicinal Chemistry, 2025).

Columns and labels:
Assay type in all cases: cell-based
[1] = target: T1, THRα (Homo sapiens, UniProt P10827); experiment: Gal4-hybrid reporter gene assay THRα; conditions: for max. fold activation THRα: maximum reporter activation vs DMSO (0.1%) treated cells
T1 construct: expressed in transfected cells; host or cells: HEK293T
T1 sequence (P10827 128-410 isoform P10827-2 limits assumed): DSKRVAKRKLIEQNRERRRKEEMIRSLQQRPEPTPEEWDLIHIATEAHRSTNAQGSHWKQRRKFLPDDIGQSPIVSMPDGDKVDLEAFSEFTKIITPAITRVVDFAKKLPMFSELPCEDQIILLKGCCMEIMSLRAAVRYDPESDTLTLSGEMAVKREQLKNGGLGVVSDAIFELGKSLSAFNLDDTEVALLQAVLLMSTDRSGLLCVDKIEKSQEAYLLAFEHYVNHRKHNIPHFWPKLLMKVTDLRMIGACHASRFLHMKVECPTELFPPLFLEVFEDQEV
Protocol: (§1) NR modulation was determined as described previously[45] in Gal4 hybrid reporter gene assays in HEK293T cells (German Collection of Microorganisms and Cell Culture GmbH, DSMZ) using pFR-Luc (Stratagene, La Jolla, CA, USA; reporter), pRL-SV40 (Promega, Madison, WI, USA; internal control) and the hybrid receptor clones pFA-CMV-hTHRα-LBD,[46] pFA-CMV-hPPARγ-LBD,[47] pFA-CMV-hFXR-LBD,[48] and pFA-CMV-hRXRα-LBD,[49] coding for the hinge region and ligand binding domain of the canonical isoform of the respective NR. Cells were cultured in Dulbecco's modified Eagle's medium (DMEM), high glucose supplemented with 10% fetal calf serum (FCS), sodium pyruvate (1 mM), penicillin (100 U mL^−1), and streptomycin (100 μg mL^−1) at 37 °C and 5% CO2 and seeded in 96-well plates (3 × 10^4 cells per well). After 24 h, medium was changed to Opti-MEM without supplements and cells were transiently transfected using Lipofectamine LTX reagent (Invitrogen, Carlsbad, CA, USA) according to the manufacturer's protocol. Five hours after transfection, cells were incubated with the test compounds in Opti-MEM supplemented with penicillin (100 U mL^−1), streptomycin (100 μg mL^−1) and 0.1% DMSO for 16 h before luciferase activity was measured using the Dual-Glo Luciferase Assay System (Promega) according to the manufacturer's protocol on a Tecan Spark luminometer (Tecan Deutschland GmbH, Crailsheim, Germany). Firefly luminescence was divided by Renilla luminescence and multiplied by 1000 resulting in relative light units (RLU) to normalize for transfection efficiency and cell growth. Fold activation was obtained by dividing the mean RLU of test compound by the mean RLU of the untreated control. All samples were tested in at least three biologically independent experiments in duplicates. For dose–response curve fitting and calculation of EC50 values, the equation “[agonist] vs. response − variable slope (four parameters)” was used in GraphPad Prism (version 7.00, GraphPad Software, La Jolla, CA, USA). For selectivity profiling, the hybrid reporter gene assay was performed with Gal4 fusion receptor plasmids for RARα, PPARα, PPARδ, VDR, CAR and LXRα. The following reference agonists were used: triiodothyronine (1 μM, THR), all-trans retinoic acid (1 μM, RAR), GW7647 (1 μM, PPARα), pioglitazone (1 μM, PPARγ), L165041 (1 μM, PPARδ), calcitriol (1 μM, VDR), CITCO (1 μM, CAR), T0901317 (1 μM, LXR), GW4064 (1 μM, FXR), bexarotene (1 μM, RXR).

[2] = target: T2, PPARγ (Homo sapiens, UniProt P37231); experiment: Gal4-hybrid reporter gene assay PPARγ; conditions: mean ± S.E.M., n ≥ 3; for max. fold activation PPARγ: maximum reporter activation vs DMSO (0.1%) treated cells
T2 construct: expressed in transfected cells; host or cells: HEK293T
T2 sequence (P37231 238-503 limits assumed): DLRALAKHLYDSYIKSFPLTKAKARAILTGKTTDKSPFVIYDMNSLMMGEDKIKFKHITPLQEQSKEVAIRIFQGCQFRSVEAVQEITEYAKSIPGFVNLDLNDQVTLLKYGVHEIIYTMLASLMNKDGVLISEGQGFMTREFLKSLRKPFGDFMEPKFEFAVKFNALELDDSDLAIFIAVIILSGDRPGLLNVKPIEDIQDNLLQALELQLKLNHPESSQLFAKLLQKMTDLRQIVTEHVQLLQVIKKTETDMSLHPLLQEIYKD
Protocol: as §1

[3] = target: T3, FXR (Homo sapiens, UniProt Q96RI1); experiment: Gal4-hybrid reporter gene assay FXR; conditions: mean ± S.E.M., n ≥ 3; for EC50 / EC50 FXR: HEK293T, Gal4-hybrid reporter, Inactive = tested 1–300 μM; for max. fold activation FXR: maximum reporter activation vs DMSO (0.1%) treated cells
T3 construct: expressed in transfected cells; host or cells: HEK293T
T3 sequence (Q96RI1 262-486 limits assumed): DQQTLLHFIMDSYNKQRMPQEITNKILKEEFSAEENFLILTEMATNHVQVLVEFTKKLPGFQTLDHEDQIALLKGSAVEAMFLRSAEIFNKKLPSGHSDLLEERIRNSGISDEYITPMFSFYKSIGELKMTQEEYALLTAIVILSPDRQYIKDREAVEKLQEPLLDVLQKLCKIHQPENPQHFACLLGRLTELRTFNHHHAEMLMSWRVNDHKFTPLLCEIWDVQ
Protocol: as §1

[4] = target: T4, RXRα (Homo sapiens, UniProt P19793); experiment: Gal4-hybrid reporter gene assay RXRα; conditions: mean ± S.E.M., n ≥ 3; for EC50 / EC50 RXRα: HEK293T, Gal4-hybrid reporter, Inactive = tested 1–300 μM; for max. fold activation RXRα: maximum reporter activation vs DMSO (0.1%) treated cells
T4 construct: expressed in transfected cells; host or cells: HEK293T
T4 sequence (P19793 227-458 limits assumed): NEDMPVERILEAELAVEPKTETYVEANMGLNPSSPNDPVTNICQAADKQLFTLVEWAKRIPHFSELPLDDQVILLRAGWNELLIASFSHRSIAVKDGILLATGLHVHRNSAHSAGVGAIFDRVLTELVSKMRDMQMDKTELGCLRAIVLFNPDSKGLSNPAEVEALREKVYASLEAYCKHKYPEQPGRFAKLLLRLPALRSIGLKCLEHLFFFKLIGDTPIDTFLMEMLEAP
Protocol: as §1

[5] = HEK293T, Gal4-hybrid reporter, Inactive = tested 1–300 μM, mean ± S.E.M., n ≥ 3
[6] = HEK293T, Gal4-hybrid reporter, Inactive = tested 1–300 μM

Row | Compound | EC50 [1, 5] [µM] | max. fold activation THRα ([1]; mean ± S.E.M., n ≥ 3) | EC50 [2, 6] [µM] | max. fold activation PPARγ [2] | EC50 [3] [µM] | max. fold activation FXR [3] | EC50 [4] [µM] | max. fold activation RXRα [4] | type of activity on THRα ([1]; Gal4-hybrid reporter gene assay) | remaining THRα activity ([1]; inverse agonism, % remain., mean ± S.E.M., n ≥ 3) | IC50 ([1]; inverse agonism, mean ± S.E.M., n ≥ 3) [µM] | EC50 PPARγ [2, 6] | EC50 FXR [3] | EC50 RXRα [4] | EC50 THRα [1, 5]
1 | O=C(O)C(c1ccccc1)(c1ccccc1)c1ccccc1 [compound 19] | – | – | – | – | – | – | – | – | Inverse agonist | (41 ± 5% remain.) | 36 | Inactive | Inactive | Inactive | –
2 | O=C(O)c1ccc(OCc2ccccc2)cc1 [compound 22] | 95 ± 9 | (8.8 ± 0.5-fold) | 136 ± 19 | (28 ± 2-fold) | – | – | – | – | – | – | – | – | Inactive | Inactive | –
3 | CSc1nccn1-c1ccc(C(=O)O)cc1 [compound 30] | 185 ± 16 | (2.5 ± 0.4-fold) | 53 ± 5 | (2.4 ± 0.1-fold) | 162 ± 31 | (2.2 ± 0.3-fold) | – | – | – | – | – | – | – | Inactive | –
4 | O=C(O)c1ccc(Oc2ccccc2)cc1 [compound 44] | 105 ± 28 | (18 ± 3-fold) | 99 ± 12 | (38 ± 3-fold) | – | – | – | – | – | – | – | – | Inactive | Inactive | –
5 | O=C(O)c1ccc(-c2cccc(F)c2)o1 [compound 53] | 194 ± 54 | (5 ± 1-fold) | 126 ± 17 | (14 ± 1-fold) | 53 ± 10 | (1.9 ± 0.1-fold) | 54 ± 9 | (2.2 ± 0.13-fold) | – | – | – | – | – | – | –
6 | N#Cc1c(F)c(F)cc(C(=O)O)c1F [compound 58] | – | – | 39 ± 3 | (9.6 ± 0.5-fold) | – | – | – | – | – | – | – | – | Inactive | Inactive | Inactive
7 | CCc1c(C(=O)O)cnn1-c1ccccc1 [compound 78] | 112 ± 44 | (2.0 ± 0.1-fold) | 237 ± 37 | (6 ± 1-fold) | – | – | 166 ± 10 | (1.6 ± 0.1-fold) | – | – | – | – | Inactive | – | –

Now from value to compound:

Row | EC50 [1, 5] [µM] | max. fold activation THRα ([1]; mean ± S.E.M., n ≥ 3) | EC50 [2, 6] [µM] | max. fold activation PPARγ [2] | EC50 [3] [µM] | max. fold activation FXR [3] | EC50 [4] [µM] | max. fold activation RXRα [4] | type of activity on THRα ([1]; Gal4-hybrid reporter gene assay) | remaining THRα activity ([1]; inverse agonism, % remain., mean ± S.E.M., n ≥ 3) | IC50 ([1]; inverse agonism, mean ± S.E.M., n ≥ 3) [µM] | EC50 PPARγ [2, 6] | EC50 FXR [3] | EC50 RXRα [4] | EC50 THRα [1, 5] | Compound
8 | 31 ± 7 | (2.4 ± 0.3-fold) | 32 ± 1 | (20 ± 1-fold) | 39 ± 3 | (3.8 ± 0.4-fold) | 50 ± 4 | (7 ± 2-fold) | – | – | – | – | – | – | – | Cc1ccccc1C(=O)/C=C/C(=O)O [4.2, (E)-4-Oxo-4-(o-tolyl)but-2-enoic acid]
9 | 19 ± 8 | (3.1 ± 0.6-fold) | 38 ± 1 | (19 ± 1-fold) | 22 ± 5 | (3.4 ± 0.4-fold) | 30 ± 5 | (4.7 ± 0.5-fold) | – | – | – | – | – | – | – | Cc1cccc(C(=O)/C=C/C(=O)O)c1 [4.3, (E)-4-Oxo-4-(m-tolyl)but-2-enoic acid]
10 | 28 ± 3 | (3.4 ± 0.4-fold) | 37 ± 1 | (17.5 ± 0.9-fold) | 27 ± 9 | (3.4 ± 0.7-fold) | 35 ± 1 | (5.3 ± 0.2-fold) | – | – | – | – | – | – | – | Cc1ccc(C(=O)/C=C/C(=O)O)cc1 [4.4, (E)-4-Oxo-4-(p-tolyl)but-2-enoic acid]
11 | 46 ± 7 | (7 ± 2-fold) | 30 ± 4 | (12 ± 2-fold) | 40 ± 3 | (3.1 ± 0.3-fold) | 46 ± 1 | (4.0 ± 0.2-fold) | – | – | – | – | – | – | – | O=C(O)/C=C/C(=O)c1ccc(Cl)cc1 [4.5, (E)-4-Oxo-4-(4-chlorophenyl)but-2-enoic acid]
